Experiment [1] concerns BaF3-FL KIT D816V or BaF3-FL KIT V560G/D816V cell line. Put plainly: Cell-based assays of c-Kit mutant kinase activity (cell proliferation, ATPlite). The following applies: at least one of the c-kit cell assays of Example 7. The gist of the method: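 BaF3 cells dependent on transfected full-length human KIT D816V or V560G/D816V (pCI-Neo, CMV promoter) were seeded at 1×10^4 cells/well and exposed to 8-point 1:3 dilutions from 10 μM top (0.2% DMSO) for three days at 37° C. ATPlite luminescence gave cell number; IC50 from concentration-response.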
Background: Cellular ATP, detected with luciferase, serves as a proxy for viable cell number.

A further experiment concerns the target c-Kit kinase (Homo sapiens (Human), UniProt P10721). Put plainly: c-Kit biochemical assay (AlphaScreen kinase activity). The method, boiled down:
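IC50 values come from 8-point, 1:3 compound titrations measuring inhibition of peptide phosphorylation by c-Kit (commercial or His-tagged E. coli-expressed) over 1 h at room temperature, read by AlphaScreen PY30/streptavidin beads. Low-ATP version: 10 μM ATP, 100 nM biotin-(E4Y)3; high-ATP version: 100 μM ATP, 30 nM biotin-(E4Y)10.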
On the technique in general: In Alpha technology, singlet oxygen from a donor bead excites a nearby acceptor bead.

We go through 19 compounds from US9771369B2, “Compounds and methods for kinase modulation, and indications therefor” (Plexxikon Inc., priority 2014, dated 2017).

c-Kit kinase, sequence (P10721 26-976): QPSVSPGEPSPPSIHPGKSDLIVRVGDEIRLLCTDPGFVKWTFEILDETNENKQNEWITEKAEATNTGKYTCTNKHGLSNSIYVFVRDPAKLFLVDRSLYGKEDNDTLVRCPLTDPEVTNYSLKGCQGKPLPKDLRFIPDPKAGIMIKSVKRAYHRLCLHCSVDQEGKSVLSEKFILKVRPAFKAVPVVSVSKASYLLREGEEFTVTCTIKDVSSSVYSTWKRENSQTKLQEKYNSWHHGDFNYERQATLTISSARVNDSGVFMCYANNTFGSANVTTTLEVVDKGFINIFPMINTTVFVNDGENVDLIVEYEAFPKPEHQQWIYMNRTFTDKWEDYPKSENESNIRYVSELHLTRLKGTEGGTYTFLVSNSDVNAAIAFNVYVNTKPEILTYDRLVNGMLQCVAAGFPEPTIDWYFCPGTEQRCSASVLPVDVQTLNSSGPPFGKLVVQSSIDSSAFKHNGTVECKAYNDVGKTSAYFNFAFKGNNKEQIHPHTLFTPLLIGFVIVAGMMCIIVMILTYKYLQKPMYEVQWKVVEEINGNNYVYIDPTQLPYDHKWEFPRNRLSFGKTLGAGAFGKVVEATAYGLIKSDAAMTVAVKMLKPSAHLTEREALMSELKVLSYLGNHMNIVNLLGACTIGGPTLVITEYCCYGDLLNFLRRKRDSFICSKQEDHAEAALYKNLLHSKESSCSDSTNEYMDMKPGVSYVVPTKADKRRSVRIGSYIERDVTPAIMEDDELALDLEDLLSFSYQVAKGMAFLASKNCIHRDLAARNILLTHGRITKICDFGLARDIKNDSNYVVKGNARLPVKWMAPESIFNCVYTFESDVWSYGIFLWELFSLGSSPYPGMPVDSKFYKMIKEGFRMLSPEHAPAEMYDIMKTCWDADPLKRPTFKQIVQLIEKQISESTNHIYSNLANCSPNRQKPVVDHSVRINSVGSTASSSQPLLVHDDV

One may read the IC50 as the concentration that inhibits the measured activity by half. As for `COc1ccc(-c2[nH]c(C3(C)CCN(c4ncnc5[nH]c(-c6ccc(F)cc6)cc45)CC3)nc2C)cc1C` [P-3052, 6-(4-fluorophenyl)-4-[4-[5-(4-methoxy-3-methyl-phenyl)-4-methyl-1H-imidazol-2-yl]-4-methyl-1-piperidyl]-7H-pyrrolo[2,3-d]pyrimidine], the results for the IC50 (in experiment [1]; against c-Kit kinase) were below 10000 nM and 0.0001 to 1 µM, respectively.
For `COc1ccc(-c2[nH]c(C3(C)CCN(c4ncnc5[nH]c(-c6ccc(C#N)cc6)cc45)CC3)nc2C)cc1C` [P-3053, 4-[4-[4-[5-(4-methoxy-3-methyl-phenyl)-4-methyl-1H-imidazol-2-yl]-4-methyl-1-piperidyl]-7H-pyrrolo[2,3-d]pyrimidin-6-yl]benzonitrile] the same measures were below 10000 nM and 0.0001 to 1 µM.
For the compound `COc1cc(-c2cc3c(N4CCC(C)(c5nc(C)c(-c6ccc(OC)c(C)c6)[nH]5)CC4)ncnc3[nH]2)ccn1` [P-3054, 4-[4-[5-(4-methoxy-3-methyl-phenyl)-4-methyl-1H-imidazol-2-yl]-4-methyl-1-piperidyl]-6-(2-methoxy-4-pyridyl)-7H-pyrrolo[2,3-d]pyrimidine], the results for the IC50 (in experiment [1]; at c-Kit kinase) were below 10000 nM and 0.0001 to 1 µM, respectively.
For `CCC1(c2nc(C)c(-c3ccc(OC)cc3)[nH]2)CCN(c2ncnc3[nH]c(-c4ccc(F)cc4)cc23)CC1` [P-3055, 4-[4-ethyl-4-[5-(4-methoxyphenyl)-4-methyl-1H-imidazol-2-yl]-1-piperidyl]-6-(4-fluorophenyl)-7H-pyrrolo[2,3-d]pyrimidine] the same measures were below 10000 nM and 0.0001 to 1 µM.
For `CCC1(c2nc(C)c(-c3ccc(OC)c(C)c3)[nH]2)CCN(c2ncnc3[nH]c(-c4ccc(F)cc4)cc23)CC1` [P-3056, 4-[4-ethyl-4-[5-(4-methoxy-3-methyl-phenyl)-4-methyl-1H-imidazol-2-yl]-1-piperidyl]-6-(4-fluorophenyl)-7H-pyrrolo[2,3-d]pyrimidine] the same measures were below 10000 nM and 0.0001 to 1 µM.
As for `Cc1nc(C2(C)CCN(c3ncnc4[nH]c(-c5ccc(F)cc5)cc34)CC2)[nH]c1-c1ccc(F)cc1` [P-3057, 6-(4-fluorophenyl)-4-[4-[5-(4-fluorophenyl)-4-methyl-1H-imidazol-2-yl]-4-methyl-1-piperidyl]-7H-pyrrolo[2,3-d]pyrimidine], the 50% inhibitory concentration (IC50) in experiment [1] was below 10000 nM; against c-Kit kinase, 0.0001 to 1 µM.
For `Cc1nc(C2(C)CCN(c3ncnc4[nH]c(-c5ccc(F)cc5)cc34)CC2)[nH]c1-c1ccc(Cl)cc1` [P-3058, 4-[4-[5-(4-chlorophenyl)-4-methyl-1H-imidazol-2-yl]-4-methyl-1-piperidyl]-6-(4-fluorophenyl)-7H-pyrrolo[2,3-d]pyrimidine] the same measures were below 10000 nM and 0.0001 to 1 µM.
For `CCc1ccc(-c2[nH]c(C3CCN(c4ncnc5[nH]c(-c6ccnc(OC)c6)cc45)CC3)nc2C)cc1` [P-3059, 4-[4-[5-(4-ethylphenyl)-4-methyl-1H-imidazol-2-yl]-1-piperidyl]-6-(2-methoxy-4-pyridyl)-7H-pyrrolo[2,3-d]pyrimidine] the same measures were below 10000 nM and 0.0001 to 1 µM.
For `CCc1ccc(-c2[nH]c(C3CCN(c4ncnc5[nH]c(-c6ccc(F)cc6)cc45)CC3)nc2C)cc1` [P-3060, 4-[4-[5-(4-ethylphenyl)-4-methyl-1H-imidazol-2-yl]-1-piperidyl]-6-(4-fluorophenyl)-7H-pyrrolo[2,3-d]pyrimidine] the same measures were below 10000 nM and 0.0001 to 1 µM.
For the compound `CCc1ccc(-c2[nH]c(C3CCN(c4ncnc5[nH]c(-c6ccc(C#N)cc6)cc45)CC3)nc2C)cc1` [P-3061, 4-[4-[4-[5-(4-ethylphenyl)-4-methyl-1H-imidazol-2-yl]-1-piperidyl]-7H-pyrrolo[2,3-d]pyrimidin-6-yl]benzonitrile], the figures for the IC50 (in experiment [1]; on c-Kit kinase) were below 10000 nM and 0.0001 to 1 µM, respectively.
Regarding `Cc1ccc(-c2[nH]c(C3CCN(c4ncnc5[nH]c(-c6ccc(F)cc6)cc45)CC3)nc2C)cc1` [P-3062, 6-(4-fluorophenyl)-4-[4-[4-methyl-5-(p-tolyl)-1H-imidazol-2-yl]-1-piperidyl]-7H-pyrrolo[2,3-d]pyrimidine], the IC50 was below 10000 nM in experiment [1] and 0.0001 to 1 µM on c-Kit kinase.
For `COc1ccc(-c2[nH]c(C3(C)CCN(c4ncnc5[nH]c(C)cc45)CC3)nc2C)cc1` [P-3063, 4-[4-[5-(4-methoxyphenyl)-4-methyl-1H-imidazol-2-yl]-4-methyl-1-piperidyl]-6-methyl-7H-pyrrolo[2,3-d]pyrimidine] the same measures were below 10000 nM and 1 to 10 µM.
For `Cc1cc2c(N3CCC(C)(c4nc(C)c(-c5ccc(F)cc5)[nH]4)CC3)ncnc2[nH]1` [P-3064, 4-[4-[5-(4-fluorophenyl)-4-methyl-1H-imidazol-2-yl]-4-methyl-1-piperidyl]-6-methyl-7H-pyrrolo[2,3-d]pyrimidine] the same measures were below 10000 nM and 1 to 10 µM.
For `CCOc1ccc(-c2[nH]c(C3CCN(c4ncnc5[nH]c(-c6ccc(F)cc6)cc45)CC3)nc2C)cc1C` [P-3065, 4-[4-[5-(4-ethoxy-3-methyl-phenyl)-4-methyl-1H-imidazol-2-yl]-1-piperidyl]-6-(4-fluorophenyl)-7H-pyrrolo[2,3-d]pyrimidine] the same measures were below 10000 nM and 0.0001 to 1 µM.
Take `CCOc1ccc(-c2[nH]c(C3CCN(c4ncnc5[nH]c(-c6ccc(C#N)cc6)cc45)CC3)nc2C)cc1C` [P-3066, 4-[4-[4-[5-(4-ethoxy-3-methyl-phenyl)-4-methyl-1H-imidazol-2-yl]-1-piperidyl]-7H-pyrrolo[2,3-d]pyrimidin-6-yl]benzonitrile]: the IC50 in experiment [1] is below 10000 nM; on c-Kit kinase, 0.0001 to 1 µM.
For `CCOc1ccc(-c2[nH]c(C3CCN(c4ncnc5[nH]c(-c6ccnc(OC)c6)cc45)CC3)nc2C)cc1C` [P-3067, 4-[4-[5-(4-ethoxy-3-methyl-phenyl)-4-methyl-1H-imidazol-2-yl]-1-piperidyl]-6-(2-methoxy-4-pyridyl)-7H-pyrrolo[2,3-d]pyrimidine] the same measures were below 10000 nM and 0.0001 to 1 µM.
Regarding `Cc1nc(C2CCN(c3ncnc4[nH]c(-c5ccc(F)cc5)cc34)CC2)[nH]c1-c1ccc2c(c1)OCO2` [P-3068, 4-[4-[5-(1,3-benzodioxol-5-yl)-4-methyl-1H-imidazol-2-yl]-1-piperidyl]-6-(4-fluorophenyl)-7H-pyrrolo[2,3-d]pyrimidine], the IC50 in experiment [1] is below 10000 nM; on c-Kit kinase, 0.0001 to 1 µM.
For `Cc1nc(C2CCN(c3ncnc4[nH]c(-c5ccc(C#N)cc5)cc34)CC2)[nH]c1-c1ccc2c(c1)OCO2` [P-3069, 4-[4-[4-[5-(1,3-benzodioxol-5-yl)-4-methyl-1H-imidazol-2-yl]-1-piperidyl]-7H-pyrrolo[2,3-d]pyrimidin-6-yl]benzonitrile] the same measures were below 10000 nM and 0.0001 to 1 µM.
For `COc1cc(-c2cc3c(N4CCC(c5nc(C)c(-c6ccc7c(c6)OCO7)[nH]5)CC4)ncnc3[nH]2)ccn1` [P-3070, 4-[4-[5-(1,3-benzodioxol-5-yl)-4-methyl-1H-imidazol-2-yl]-1-piperidyl]-6-(2-methoxy-4-pyridyl)-7H-pyrrolo[2,3-d]pyrimidine] the same measures were below 10000 nM and 0.0001 to 1 µM.
